Assay results as given in the supplement of paper PMC11208160.

Experiment: recombinant UMI read abundance after kanamycin selection (control-corrected) (log10(CPM+1)); higher = more efficient recombination; extreme values may be limits of the assay; sequences stand for … in AGTGCAGAGAAAATCGGCCAGTTTTCTCTGCCTGCAGTCCGCATGCCGTGGGACCCCTTGGGTTCTAACCTGTTGCCTAGATTTATGCAGCGGACTGCCTTTCTCCCAAAGTGATAAACCGG…AGGTTGGTTTCACT; site = the 11-nt donor
Outline: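 Under IPTG (0.07 mM) plus kanamycin, or without selection, Escherichia coli carrying a UMI-tagged donor and donor-binding-loop pair library and a target plasmid for the IS621 bridge recombinase were plated in two replicates. Recombinant UMIs were PCR-amplified across the donor–target junction and sequenced. Counts were converted to CPM, averaged over replicates, scaled by control-derived factors and reported as log10(CPM+1).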
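Note: IS621 bridge recombinase in Escherichia coli cells against a fixed T5 target plasmid.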

Sequence | recombinant UMI read abundance (log10)
TAGTGCCCATGGACCGGTTTTCCCGGTAATCCGTATTTGGC (site TAGTGCCCTGC) | 0
TAGTGTTCATGGACCGGTTTTCCCGGTAATCCGTATTTGCA (site TAGTGTTCTTG) | 2.49
TAGTTGGCATGGACCGGTTTTCCCGGTAATCCGTATTTGGG (site TAGTTGGCTCC) | 0.0252
TATAAGCCATGGACCGGTTTTCCCGGTAATCCGTATTTGCC (site TATAAGCCTGG) | 0
TATAGCGCATGGACCGGTTTTCCCGGTAATCCGTATTTGGC (site TATAGCGCTGC) | 2.48
TATAGGCCATGGACCGGTTTTCCCGGTAATCCGTATTTGAG (site TATAGGCCTCT) | 0.0191
TATCATTCATGGACCGGTTTTCCCGGTAATCCGTATTTGGG (site TATCATTCTCC) | 0.00534
TATCCGTCATGGACCGGTTTTCCCGGTAATCCGTATTTGAA (site TATCCGTCTTT) | 0.0803
TATGAGTCATGGACCGGTTTTCCCGGTAATCCGTATTTGCT (site TATGAGTCTAG) | 2.74
TATGCAACATGGACCGGTTTTCCCGGTAATCCGTATTTGTT (site TATGCAACTAA) | 0.0144
TATGCACCATGGACCGGTTTTCCCGGTAATCCGTATTTGGT (site TATGCACCTAC) | 0.0323
TATGTGTCATGGACCGGTTTTCCCGGTAATCCGTATTTGAC (site AATGTGTCTGT) | 0
TATGTGTCATGGACCGGTTTTCCCGGTAATCCGTATTTGAC (site CATGTGTCTGT) | 0
TATGTGTCATGGACCGGTTTTCCCGGTAATCCGTATTTGAC (site GATGTGTCTGT) | 0
TATGTGTCATGGACCGGTTTTCCCGGTAATCCGTATTTGAC (site TATGTGTCTGT) | 0.884
TATTACACATGGACCGGTTTTCCCGGTAATCCGTATTTGCC (site TATTACACTGG) | 2.37
TATTAGACATGGACCGGTTTTCCCGGTAATCCGTATTTGCG (site TATTAGACTCG) | 1.03
TATTGGGCATGGACCGGTTTTCCCGGTAATCCGTATTTGTG (site TATTAGGCTCA) | 0.0242
TATTGGGCATGGACCGGTTTTCCCGGTAATCCGTATTTGTG (site TATTCGGCTCA) | 0.00589
TATTGGGCATGGACCGGTTTTCCCGGTAATCCGTATTTGTG (site TATTGGGCTCA) | 0.226
TATTGGGCATGGACCGGTTTTCCCGGTAATCCGTATTTGTG (site TATTTGGCTCA) | 0.0234
TATTGTGCATGGACCGGTTTTCCCGGTAATCCGTATTTGGT (site TATTGTGCTAC) | 0.401
TATTTGTCATGGACCGGTTTTCCCGGTAATCCGTATTTGTG (site TATTTGACTCA) | 0.0169

Sequence | recombinant UMI read abundance (log10)
TATTTGTCATGGACCGGTTTTCCCGGTAATCCGTATTTGTG (site TATTTGCCTCA) | 0.0214
TATTTGTCATGGACCGGTTTTCCCGGTAATCCGTATTTGTG (site TATTTGGCTCA) | 0.0347
TATTTGTCATGGACCGGTTTTCCCGGTAATCCGTATTTGTG (site TATTTGTCTCA) | 0.515
TATTTTGCATGGACCGGTTTTCCCGGTAATCCGTATTTGTG (site TATTTAGCTCA) | 0.00468
TATTTTGCATGGACCGGTTTTCCCGGTAATCCGTATTTGTG (site TATTTCGCTCA) | 0.0112
TATTTTGCATGGACCGGTTTTCCCGGTAATCCGTATTTGTG (site TATTTGGCTCA) | 0
TATTTTGCATGGACCGGTTTTCCCGGTAATCCGTATTTGTG (site TATTTTGCTCA) | 0.00898
TCAATTTCATGGACCGGTTTTCCCGGTAATCCGTATTTGGC (site TCAATTTCTGC) | 0
TCACACTCATGGACCGGTTTTCCCGGTAATCCGTATTTGAT (site TCACACTCTAT) | 2.38
TCACAGCCATGGACCGGTTTTCCCGGTAATCCGTATTTGCA (site TCACAGCCTTG) | 0.816
TCACCTGCATGGACCGGTTTTCCCGGTAATCCGTATTTGCG (site TCACCTGCTCG) | 0.016
TCACCTGCATGGACCGGTTTTCCCGGTAATCCGTATTTGTT (site TCACCTGCTAA) | 0.063
TCACGCACATGGACCGGTTTTCCCGGTAATCCGTATTTGCT (site TCACGCACTAG) | 1.97
TCACGTACATGGACCGGTTTTCCCGGTAATCCGTATTTGAT (site TCACGTACTAT) | 0.589
TCACGTCCATGGACCGGTTTTCCCGGTAATCCGTATTTGGC (site TCACGTCCTGC) | 0
TCAGACTCATGGACCGGTTTTCCCGGTAATCCGTATTTGCA (site TCAAACTCTTG) | 0.771
TCAGACTCATGGACCGGTTTTCCCGGTAATCCGTATTTGCA (site TCACACTCTTG) | 1.19
TCAGACTCATGGACCGGTTTTCCCGGTAATCCGTATTTGCA (site TCAGACTCTTG) | 2.95
TCAGACTCATGGACCGGTTTTCCCGGTAATCCGTATTTGCA (site TCATACTCTTG) | 0.807
TCAGATACATGGACCGGTTTTCCCGGTAATCCGTATTTGGC (site TCAGATACTGC) | 0
TCAGCATCATGGACCGGTTTTCCCGGTAATCCGTATTTGCA (site ACAGTATCTTG) | 0.8
TCAGCATCATGGACCGGTTTTCCCGGTAATCCGTATTTGCA (site TCAGCATCTTG) | 0.224
TCAGCCTCATGGACCGGTTTTCCCGGTAATCCGTATTTGAT (site TCAGCCTCTAT) | 1.36

Sequence | recombinant UMI read abundance (log10)
TCAGCGACATGGACCGGTTTTCCCGGTAATCCGTATTTGCG (site TCAGAGACTCG) | 0.00361
TCAGCGACATGGACCGGTTTTCCCGGTAATCCGTATTTGCG (site TCAGCGACTCG) | 1.37
TCAGCGACATGGACCGGTTTTCCCGGTAATCCGTATTTGCG (site TCAGGGACTCG) | 0.0187
TCAGCGACATGGACCGGTTTTCCCGGTAATCCGTATTTGCG (site TCAGTGACTCG) | 0.00864
TCAGCTGCATGGACCGGTTTTCCCGGTAATCCGTATTTGTG (site TAAGCTGCTCA) | 0.0147
TCAGCTGCATGGACCGGTTTTCCCGGTAATCCGTATTTGTG (site TCAGCTGCTCA) | 0.637
TCAGCTGCATGGACCGGTTTTCCCGGTAATCCGTATTTGTG (site TGAGCTGCTCA) | 0.00568
TCAGCTGCATGGACCGGTTTTCCCGGTAATCCGTATTTGTG (site TTAGCTGCTCA) | 0.0047
TCAGGCACATGGACCGGTTTTCCCGGTAATCCGTATTTGGC (site TCAGGCACTGC) | 0.89
TCAGGGACATGGACCGGTTTTCCCGGTAATCCGTATTTGCG (site TCAGAGACTCG) | 0.74
TCAGGGACATGGACCGGTTTTCCCGGTAATCCGTATTTGCG (site TCAGCGACTCG) | 0.0114
TCAGGGACATGGACCGGTTTTCCCGGTAATCCGTATTTGCG (site TCAGGGACTCG) | 1.03
TCAGGGACATGGACCGGTTTTCCCGGTAATCCGTATTTGCG (site TCAGTGACTCG) | 0.0229
TCAGTAACATGGACCGGTTTTCCCGGTAATCCGTATTTGTA (site TCAGTAACTTA) | 1.71
TCAGTAGCATGGACCGGTTTTCCCGGTAATCCGTATTTGGC (site TCAGTAGCTGC) | 1.54
TCAGTTCCATGGACCGGTTTTCCCGGTAATCCGTATTTGAA (site TCAGTTCCTTT) | 0.398
TCAGTTTCATGGACCGGTTTTCCCGGTAATCCGTATTTGCA (site ACAGTATCTTG) | 0.0288
TCAGTTTCATGGACCGGTTTTCCCGGTAATCCGTATTTGCA (site TCAGTTTCTTG) | 1.14
TCATACACATGGACCGGTTTTCCCGGTAATCCGTATTTGCA (site TCATACACTTG) | 2.45
TCATACACATGGACCGGTTTTCCCGGTAATCCGTATTTGCA (site TCATACCCTTG) | 0.302
TCATACACATGGACCGGTTTTCCCGGTAATCCGTATTTGCA (site TCATACGCTTG) | 1.36
TCATACACATGGACCGGTTTTCCCGGTAATCCGTATTTGCA (site TCATACTCTTG) | 1.5
